PMC10867575, “Functional validation of novel levamisole resistance marker S168T in Haemonchus contortus” (International Journal for Parasitology: Drugs and Drug …, 2024)
Like-named read-outs stand apart in the source and are kept apart here.

Test system: T1, Hco-L-AChR-1.1 (UNC-29.1/UNC-38/UNC-63/ACR-8)
T1 construct: cRNAs co-injected in Xenopus laevis oocytes with H. contortus ancillary ric-3.1, unc-50, unc-74; wild-type clones from earlier studies; S168T acr-8 cloned from isolate MHco18 (UGA2004), vector pTB207
Test: two-electrode voltage clamp, Xenopus oocytes
Type: cell-based, Haemonchus contortus
Settings: agonist, 100 mM NaCl, 2.5 mM KCl, 1 mM CaCl2, 5 mM HEPES, pH 7.3, currents normalised to 100 μM ACh
Excerpt: two-electrode voltage clamp, Xenopus oocytes on Hco-L-AChR-1.1 (UNC-29.1/UNC-38/UNC-63/ACR-8)

Structure (SMILES)	EC50 (read-out: ACh EC50) [µM]	EC50 (read-out: LEV EC50) [µM]
CC(=O)OCC[N+](C)(C)C [ACh, acetylcholine]	4.2 ± 1.1	
c1ccc([C@H]2CN3CCSC3=N2)cc1 [LEV, levamisole]		3.2 ± 1.1
